Entries after “also recorded” stand apart in the source; their conditions may differ.
Legend:
human α3β4 channels = molecular target: T1, human α3β4 channels (Homo sapiens, UniProt P30926+P32297); test: Use-dependent inhibition of human α3β4 channels expressed in CHO cells (Dynaflow electrophysiology); format: cell-based
T1 construct: host or cells: CHO cells
Procedure: There was an assumption that the dependence on the number of co-applications would be the most relevant to clinical concentrations, since upon the time of exposure in vivo, the number of open channels could reach substantial numbers; perhaps due to channel spontaneous opening, flickering, and endogenous transmitter release as a result of brain activity. All experiments were performed using a conventional Dynaflow (Cellectricon Inc.) electrophysiological system. Dynaflow settings: To achieve continuous exposure to the drug we used following Dynaflow chip loading. An example of standard chip loading for use-dependent experiments with example for 30 μM ACh and 0.1 μM of TC-05231 (racemic mecamylamine). For the following experiments, ACh always consisted of 30 μM and concentrations of compounds were, 0.03, 0.1, 0.3 and 1.0 (μM). FIG. 13 illustrates the settings.
Applications were performed by positioning the cell in front of channel #1 for 1 second, followed by channel #3, then back to channel #1 by rapidly moving the Dynaflow chip, which consisted of both the laminar flow from the channels and the entire bath solution. The additional channels between control and ACh-containing channel were used: (1) to provide the needed space for an additional washout to avoid contaminating the control channels with the agonist solution; and (2) to allow for the necessary amount of time for the Dynaflow stage to reach its optimum scanning speed.
3.1. Establishment of recording baseline: First, pipette with cells moved to channel #3. Then cells were exposed to ACh by moving cells to channel #1 for 1 second and back to channel #3. This movement of cells was repeated 10 times at 30 second intervals;
3.2. Collection data on use-dependent inhibition: After establishment of stable baseline, cells were moved to channel #6 and exposed to a test compound for 30 sec. Then cells were moved to channel #8 for 1 second and back to channel #6 for 30 seconds (total 10 times with intervals 30 seconds); and 3.3. To test reversibility of block (washout): repeat step 1. Note: with this chip setting, during repeated application of acetylcholine plus test compound, there was no interruption in application of compounds. For all calculations, peak current amplitude was normalized to the peak current amplitude evoked by the 10th application of acetylcholine. Experimental Results

[1] = Urinary excretion and bladder/urine concentration after oral dosing, clinical program for depression; format: in vivo, human; conditions: for excretion unchanged in the urine: human, in vivo
Procedure: One aspect of the present invention is the use of dexmecamylamine as an oral agent for intravesical drug delivery. Oral doses (up to 4 mg BID) of dexmecamylamine evaluated during clinical studies for depression produced concentrations in the bladder in excess of 10 μM. […] Nicotinic receptors, including α3, α7, and β4, are expressed in the bladder urothelium itself. Agents that block nicotinic receptors in the bladder, such as hexamethonium, decrease bladder contractions and may block sensation of urgency. Inhibition of the α3 receptor diminishes bladder contraction frequency and afferent signaling to the brain (via P2X), thereby blocking or reducing the sensation of urgency. […] (Xu et al., Megacystis, mydriasis, and ion channel defect in mice lacking the α3 neuronal nicotinic acetylcholine receptor, Proc. Natl. Acad. Sci., Vol. 96, pp. 5746-5751, May 1999.)
During the dexmecamylamine clinical program for depression, including the initial phase 1 study (conducted by Targacept), ≧90% of orally administered dexmecamylamine was excreted unchanged in the […].

[2] = system: bladder function in conscious Sprague Dawley rats; test: Oral administration (gavage) in awake, conscious rats, cystometry; conditions: 1 mg/kg oral gavage; for bladder contraction amplitude: compared to baseline/control; for change in spontaneous activity (SA), a surrogate for urge: compared to control; for change in bladder capacity / change in micturition interval / ICI / change in micturition volume: relative to baseline/control
Procedure: A further study was conducted to evaluate the effects of TC-5214 on bladder function in awake, conscious Sprague Dawley rats.
Nine female Sprague Dawley rats received intravesical saline at a rate of 10 mL/hr. Following a 60-minute baseline evaluation, rats were administered dexmecamylamine at a dose of 1 mg/kg by oral gavage, a dose previously determined to be the “No Effect Dose” in safety pharmacology studies. Two hours following the oral administration of dexmecamylamine, cystometric parameters were collected over a period of one hour.

T1 sequence (P32297 32-505): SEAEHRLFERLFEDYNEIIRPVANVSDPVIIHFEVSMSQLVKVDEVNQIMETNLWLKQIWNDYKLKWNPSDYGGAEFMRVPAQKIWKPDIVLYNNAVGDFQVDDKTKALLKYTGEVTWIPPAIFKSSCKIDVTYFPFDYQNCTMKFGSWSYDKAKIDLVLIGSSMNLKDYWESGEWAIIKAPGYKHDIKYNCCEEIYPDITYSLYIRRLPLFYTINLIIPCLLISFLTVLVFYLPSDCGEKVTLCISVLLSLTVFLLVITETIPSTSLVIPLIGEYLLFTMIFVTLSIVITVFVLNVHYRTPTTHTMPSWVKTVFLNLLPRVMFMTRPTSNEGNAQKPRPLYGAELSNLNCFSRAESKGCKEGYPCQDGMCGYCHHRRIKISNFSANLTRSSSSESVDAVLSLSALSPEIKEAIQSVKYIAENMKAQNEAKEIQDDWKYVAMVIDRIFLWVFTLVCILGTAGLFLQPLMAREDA
T1 sequence (P30926 22-498): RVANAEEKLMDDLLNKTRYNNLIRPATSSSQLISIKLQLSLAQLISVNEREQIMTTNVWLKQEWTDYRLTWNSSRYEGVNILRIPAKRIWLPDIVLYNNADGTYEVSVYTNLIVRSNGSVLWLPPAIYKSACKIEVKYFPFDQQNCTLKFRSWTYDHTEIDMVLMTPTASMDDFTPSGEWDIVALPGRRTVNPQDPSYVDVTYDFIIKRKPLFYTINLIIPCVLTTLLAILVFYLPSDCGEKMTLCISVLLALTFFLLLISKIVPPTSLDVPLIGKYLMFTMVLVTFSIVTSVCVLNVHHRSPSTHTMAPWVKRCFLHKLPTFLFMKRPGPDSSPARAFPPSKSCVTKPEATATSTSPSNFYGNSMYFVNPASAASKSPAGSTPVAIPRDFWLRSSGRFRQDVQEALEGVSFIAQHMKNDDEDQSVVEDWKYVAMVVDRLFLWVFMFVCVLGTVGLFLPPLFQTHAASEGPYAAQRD

SMILES: CNC1(C)[C@H]2CCC(C2)C1(C)C (stereo partly drawn) [TC-5214, (S)—N,2,3,3-tetramethylnorbornan-2-amine]
- peak current normalized to 10th ACh application (positive modulation, FIG. 16) (human α3β4 channels; 30 nM compound + 30 μM ACh, first co-application, control = 100, SEM and n in next columns): 113.3
- positive modulation of α3β4 function (human α3β4 channels; 30 nM, t-test p<0.05): weak positive modulation
- inhibition of human α3β4 receptor (asymptotes to the curve, FIG. 14) (human α3β4 channels; 100 nM compound with acetylcholine): minor to no detectable inhibition
- Inhibition by (%) (human α3β4 channels; 100 nM compound, after 10 co-applications of 30 uM Ach and compound): 10% ± 6%
- activity at 0.03 µM (human α3β4 channels; CHO, 30 nM compound + 30 μM ACh, successive grid rows = co-applications 1 to 10, control = 100, read-out: peak current amplitude normalized to 10th ACh application, use-dependent inhibition box): 113%
- activity at 0.1 µM (human α3β4 channels; CHO, 100 nM compound + 30 μM ACh, successive grid rows = co-applications 1 to 10 at 30 s intervals, control = 100, read-out: peak current amplitude normalized to 10th ACh application, use-dependent inhibition box): 100%
- inhibition at 0.1 µM (human α3β4 channels; CHO, 100 nM compound, after 10 co-applications of 30 uM Ach and compound, read-out: Inhibition by (%)): 10.1%
- recovery (%) (human α3β4 channels; after 100 nM compound, following 10 application of Ach (30 uM) alone): 96% ± 6%
- recovery / persistence of inhibition after wash out (human α3β4 channels; after 30 and 100 nM compound, agonist alone): full recovery
- expected mean concentrations (urine) in humans ([1]; 0.5 mg BID dosing): approximately 3 μM
- mean urine concentrations ([1]; 1 mg BID): approximately 6 μM
- excretion unchanged in the urine [1]: eliminated unchanged in the urine
- excretion unchanged in the urine ([1]; listed as dexmecamylamine): excreted almost entirely unchanged in the urine
- concentrations in the bladder ([1]; oral doses up to 4 mg BID): > 10 µM
- orally administered dose excreted unchanged in the bladder ([1]; oral, clinical program for depression incl. initial phase 1 study): ≥ 90%
- NOEL (30 days oral): 1 mg/kg/day
- mortality and histopathologic changes (doses up to and including 50 mg/kg/day): did not produce any mortalities nor any histopathologic changes
- bladder contraction amplitude [2]: placebo-like
- bladder contraction amplitude ([2]; listed as dexmecamylamine): without producing detrimental changes; also recorded: insignificant effect
- change in spontaneous activity (SA), a surrogate for urge [2]: statistically significant differential
- change in spontaneous activity (SA), a surrogate for urge ([2]; listed as dexmecamylamine): significant decrease
- bladder compliance ([2]; relative to baseline): without producing detrimental changes
- micturition pressure ([2]; relative to baseline): without producing detrimental changes
- change in bladder capacity [2]: statistically significant increase
- change in micturition interval / ICI [2]: statistically significant increase
- change in micturition volume [2]: statistically significant increase
- change in bladder capacity ([2]; listed as dexmecamylamine): statistically significant (Student paired-t test) increases
- change in micturition interval / ICI ([2]; listed as dexmecamylamine): statistically significant (Student paired-t test) increases
- change in micturition volume ([2]; listed as dexmecamylamine): statistically significant (Student paired-t test) increases
- micturition interval ([2]; Last 1H (from 2 h after dosing), baseline First 1H 6.44 ± 1.24, FIG. 25 gives minutes): 9.44 ± 1.87
- RV (Bcap-MV) ([2]; Last 1H, baseline First 1H 0.06 ± 0.02): 0.09 ± 0.04
- B compliance ([2]; Last 1H, baseline First 1H 0.11 ± 0.03): 0.13 ± 0.03
- Bcap ([2]; Last 1H, baseline First 1H 1.04 ± 0.24): 1.58 ± 0.31
- SA (IMP-BP) ([2]; Last 1H, baseline First 1H 6.55 ± 2.01): 6.99 ± 2.57
- BP (baseline) ([2]; Last 1H, baseline First 1H 10.39 ± 1.96): 8.60 ± 1.10
- IMP ([2]; Last 1H, baseline First 1H 16.94 ± 3.94): 15.6 ± 2.91
- TP ([2]; Last 1H, baseline First 1H 23.27 ± 3.82): 23.3 ± 2.0

Reference: US8901177B2, “Method of treating bladder disorders” (Targacept, Inc., priority 2012, dated 2014)
